Measured values published in PMC8379256, “A xanthene derivative, DS20060511, attenuates glucose intolerance by inducing skeletal muscle-specific GLUT4 translocation in mice” (Communications Biology, 2021).
Where “and” joins values, the source holds several entries; their conditions need not be identical. Equal entries are not always repeated.

Columns and labels:
[1] = system: wild-type and GLUT4KO mice; assay: Oral GTT in wild-type and GLUT4 knockout mice; type: in vivo, mouse; settings: for Blood glucose / Plasma insulin: glucose tolerance test, DS20060511 30 mg/kg, individual animals, 30 mg/kg; for blood glucose and plasma insulin levels during oral GTT (in words): 30 mg kg−1 po
Description: Fig. 3 The glucose-lowering effect of DS20060511 is totally dependent on GLUT4. a Blood glucose and plasma insulin levels during oral GTT in wild-type (WT, n = 5) and GLUT4 knockout (KO, n = 6) mice. Mice received oral administration of vehicle or DS20060511 (30 mg kg^−1), 15 min prior to the glucose administration (1.5 g kg^−1). Values shown are means ± SEM. *P < 0.05, **P < 0.01 vs. vehicle by the t-test. b DS20060511-stimulated [^3H]-2-DG uptake in the isolated soleus and EDL muscles excised from WT (n = 6) and KO (n = 6) mice. Values shown are means ± SEM. **P < 0.01 vs. vehicle by the t-test.
(§1) C57BL/6 and db/db mice were purchased from CLEA Japan, Tokyo, Japan. GLUT4- knockout mice were generated at RIKEN BioResource Center, Tsukuba, Japan, according to a previously described method. eNOS-knockout mice were kindly provided by Dr. Masato Tsutsui[41],[42]. The mice were group-housed under controlled illumination (12:12 h light-dark cycle) and temperature (23 ± 2 °C) conditions and given free access to normal chow and water, unless otherwise specified. The HFD-fed obese mice were prepared by feeding C57BL/6 mice a HFD for at least 8 weeks from 6 weeks of age. […] Male mice were used for all the experiments in this study. The animal care and experimental procedures used in the study were approved by The University of Tokyo Animal Care Committee (Approval number: 27-3), and the study was carried out in accordance with the Animal Experimentation Guidelines of Daiichi Sankyo Co., Ltd (Approved number: 20000411).
Mice that had been denied access to food overnight received the indicated oral dose of DS20060511 or vehicle 15 min prior to the glucose load (1.5 g kg^−1, except for eNOS-knockout mice, which received 3.0 g kg^−1). Then, after the oral glucose load, the blood glucose levels were measured using Glutest Every in samples obtained from the tail vein at the indicated timepoints. Plasma insulin concentrations were also measured with an ELISA kit (Morinaga Institute of Biological Science, Yokohama, Japan) in blood samples collected from the tail vein at the indicated timepoints.

[2] = system: isolated skeletal muscles; assay: 2-DG uptake with muscle contraction (5 Hz electrical stimulation) in isolated muscles; set-up: species or system mouse; settings: for IC 2DOG: incubation 10 min
Description: The soleus or EDL muscle was removed from anesthetized mice (isoflurane anesthesia) that had been denied access to food overnight, and incubated with oxygenated (95% O2/5% CO2) Krebs-Henseleit Bicarbonate (KHB) buffer (118.1 mM NaCl, 4.7 mM KCl, 1.1 mM KH2PO4, 1.2 mM MgSO4, 2.5 mM CaCl2, and 25 mM NaHCO3, pH7.4) in the presence of 11.1 mM glucose at 37 °C. The muscle specimens were then treated with the indicated concentrations of the compounds in KHB buffer containing 11.1 mM glucose and 8 mM mannitol for 10 min at 37 °C. Thereafter, the muscles were rinsed with KHB buffer containing 8 mM mannitol and the compounds for 5 min at 37 °C. Lastly, the muscles were treated with the compounds in KHB buffer containing 1 mM 2-DG (with 0.3 μCi mL^−1 [^3H]-2-DG) and 8 mM mannitol (with 0.03 μCi mL^−1 [^14C]-mannitol) for 10 min at 37 °C. After the muscle specimens were washed, they were lysed with 1 N NaOH and neutralized with 1 N HCl. The ^14C- and ^3H-specific activities were counted with a liquid scintillation counter. The specific uptake of 2-DG was calculated by subtracting the nonspecific uptake of mannitol from the total 2-DG uptake. To investigate the effects of muscle contraction, muscle contraction was induced by electrical stimulation with 5 Hz (1 ms pulse duration, 100 V) for 10 min (SEN-5201, Nihon Koden, Tokyo, Japan).

WT and eNOSKO mice = assay: ITT in wild-type and eNOS-knockout mice; type: in vivo, mouse; settings: for Blood glucose: Insulin tolerance test, individual animals
Description: Fig. 7 DS20060511 treatment decreases blood glucose levels in both WT and eNOSKO mice during oral GTT and ITT. a, b Blood glucose levels during oral GTT in wild-type (WT, n = 5) and eNOS-knockout (KO, n = 5–6) mice. Mice received vehicle or DS20060511 (10 mg kg^−1) orally 15 min before the glucose administration (3.0 g kg^−1). c, d Blood glucose levels during ITT in WT (n = 4) and KO (n = 5) mice. […] Values shown are means ± SEM. *P < 0.05, **P < 0.01, ***P < 0.001 vs. vehicle by the t-test.
as §1
Mice received the indicated oral dose of DS20060511 or vehicle at the same time as the intraperitoneal injection of insulin (Humulin) at the indicated dose. Blood glucose levels were measured using Glutest Every in blood samples collected from the tail vein at the indicated timepoints.

[3] = DS20060511 1 μM, electrical stimulation +, muscles #1-3

Compound: COc1ccc2c(C)c(C(=O)O)ccc2c1C1C2=C(CC(C)(C)CC2=O)OC2=C1C(=O)CC(C)(C)C2 [DS20060511]
- Blood glucose ([1]; GLUT4KO mice, 0 min): 151 mg/dL and 106 mg/dL and 203 mg/dL and 105 mg/dL and 130 mg/dL
- Plasma insulin ([1]; GLUT4KO mice, 0 min): 0.11 ng/mL and 0.07 ng/mL and 0.16 ng/mL and 0.12 ng/mL and 0.18 ng/mL
- Blood glucose ([1]; GLUT4KO mice, 15 min): 361 mg/dL and 352 mg/dL and 278 mg/dL and 400 mg/dL and 444 mg/dL
- Plasma insulin ([1]; GLUT4KO mice, 15 min): 0.43 ng/mL and 0.42 ng/mL and 0.55 ng/mL and 0.33 ng/mL and 0.70 ng/mL and 0.59 ng/mL
- Blood glucose ([1]; GLUT4KO mice, 30 min): 422 mg/dL and 387 mg/dL and 377 mg/dL and 384 mg/dL and 492 mg/dL and 513 mg/dL
- Plasma insulin ([1]; GLUT4KO mice, 30 min): 0.34 ng/mL and 0.39 ng/mL and 0.25 ng/mL and 0.30 ng/mL and 0.28 ng/mL
- Blood glucose ([1]; GLUT4KO mice, 60 min): 272 mg/dL and 266 mg/dL and 232 mg/dL and 390 mg/dL and 329 mg/dL and 389 mg/dL
- Blood glucose ([1]; GLUT4KO mice, 90 min): 175 mg/dL and 168 mg/dL and 194 mg/dL and 265 mg/dL and 245 mg/dL and 275 mg/dL
- Blood glucose ([1]; GLUT4KO mice, 120 min): 115 mg/dL and 112 mg/dL and 165 mg/dL and 193 mg/dL and 153 mg/dL and 190 mg/dL
- Blood glucose ([1]; GLUT4KO mice, -15 min): 93 mg/dL and 75 mg/dL and 110 mg/dL and 49 mg/dL and 95 mg/dL and 89 mg/dL
- Plasma insulin ([1]; GLUT4KO mice, -15 min): 0.06 ng/mL and 0.10 ng/mL and 0.11 ng/mL and 0.18 ng/mL and 0.13 ng/mL and 0.14 ng/mL
- blood glucose and plasma insulin levels during oral GTT (in words) ([1]; GLUT4KO mice): completely abolished
- Blood glucose ([1]; Wildtype mice, 0 min): 69 mg/dL and 44 mg/dL and 58 mg/dL and 62 mg/dL and 46 mg/dL
- Plasma insulin ([1]; Wildtype mice, 0 min): 0.10 ng/mL and 0.02 ng/mL and 0.13 ng/mL and 0.14 ng/mL
- Blood glucose ([1]; Wildtype mice, 15 min): 133 mg/dL and 103 mg/dL and 142 mg/dL and 181 mg/dL and 104 mg/dL
- Plasma insulin ([1]; Wildtype mice, 15 min): 0.16 ng/mL and 0.14 ng/mL and 0.17 ng/mL and 0.18 ng/mL and 0.11 ng/mL
- Blood glucose ([1]; Wildtype mice, 30 min): 124 mg/dL and 111 mg/dL and 100 mg/dL and 107 mg/dL
- Plasma insulin ([1]; Wildtype mice, 30 min): 0.26 ng/mL and 0.10 ng/mL and 0.15 ng/mL
- Blood glucose ([1]; Wildtype mice, 60 min): 92 mg/dL and 64 mg/dL and 99 mg/dL and 91 mg/dL and 76 mg/dL
- Blood glucose ([1]; Wildtype mice, 90 min): 71 mg/dL and 61 mg/dL and 87 mg/dL and 88 mg/dL and 68 mg/dL
- Blood glucose ([1]; Wildtype mice, 120 min): 74 mg/dL and 72 mg/dL and 70 mg/dL and 78 mg/dL and 82 mg/dL
- Blood glucose ([1]; Wildtype mice, -15 min): 66 mg/dL and 39 mg/dL and 48 mg/dL and 81 mg/dL and 64 mg/dL
- Plasma insulin ([1]; Wildtype mice, -15 min): 0.14 ng/mL and 0.18 ng/mL and 0.11 ng/mL
- blood glucose and plasma insulin levels during oral GTT (in words) ([1]; wild-type (WT) mice): significant decrease of the blood glucose and plasma insulin levels
- IC 2DOG [2, 3]: 385 nmol/g and 372 nmol/g and 382 nmol/g
- Raio (2-DG uptake relative to unstimulated control) [2, 3]: 2.15 and 2.08 and 2.17
- IC 2DOG ([2]; DS20060511 10 μM, electrical stimulation +, muscles #1-3): 366 nmol/g and 368 nmol/g and 397 nmol/g
- 2-DG uptake with electrical muscle stimulation ([2]; vs electrical stimulation alone, Fig. 6a): elevated to a greater degree
- Blood glucose (WT and eNOSKO mice; Wildtype, 10 mg/kg, 0 min): 176 mg/dL and 163 mg/dL and 183 mg/dL and 182 mg/dL
- Blood glucose (WT and eNOSKO mice; Wildtype, 10 mg/kg, 20 min): 96 mg/dL and 77 mg/dL and 89 mg/dL and 88 mg/dL
- Blood glucose (WT and eNOSKO mice; Wildtype, 10 mg/kg, 40 min): 60 mg/dL and 67 mg/dL and 74 mg/dL
- Blood glucose (WT and eNOSKO mice; Wildtype, 10 mg/kg, 60 min): 58 mg/dL and 71 mg/dL and 70 mg/dL and 52 mg/dL
- Blood glucose (WT and eNOSKO mice; Wildtype, 10 mg/kg, 80 min): 57 mg/dL and 67 mg/dL and 68 mg/dL and 53 mg/dL
- Blood glucose (WT and eNOSKO mice; Wildtype, 10 mg/kg, 100 min): 63 mg/dL and 84 mg/dL and 67 mg/dL and 58 mg/dL
- Blood glucose (WT and eNOSKO mice; Wildtype, 10 mg/kg, 120 min): 57 mg/dL and 74 mg/dL and 70 mg/dL
- Blood glucose (WT and eNOSKO mice; eNOSKO, 30 mg/kg, 0 min): 191 mg/dL and 175 mg/dL and 168 mg/dL and 169 mg/dL
- Blood glucose (WT and eNOSKO mice; eNOSKO, 30 mg/kg, 20 min): 95 mg/dL and 89 mg/dL and 100 mg/dL and 120 mg/dL and 97 mg/dL
- Blood glucose (WT and eNOSKO mice; eNOSKO, 30 mg/kg, 40 min): 69 mg/dL and 75 mg/dL and 81 mg/dL and 76 mg/dL
- Blood glucose (WT and eNOSKO mice; eNOSKO, 30 mg/kg, 60 min): 61 mg/dL and 64 mg/dL and 40 mg/dL and 41 mg/dL and 51 mg/dL
- Blood glucose (WT and eNOSKO mice; eNOSKO, 30 mg/kg, 80 min): 66 mg/dL and 55 mg/dL and 39 mg/dL and 48 mg/dL
- Blood glucose (WT and eNOSKO mice; eNOSKO, 30 mg/kg, 100 min): 72 mg/dL and 53 mg/dL and 35 mg/dL and 34 mg/dL and 39 mg/dL
- Blood glucose (WT and eNOSKO mice; eNOSKO, 30 mg/kg, 120 min): 76 mg/dL and 49 mg/dL and 55 mg/dL and 37 mg/dL and 39 mg/dL
- blood glucose levels during ITT (in words) (WT and eNOSKO mice; WT and eNOSKO mice, 30 mg kg−1 po with 0.5 U kg−1 insulin ip): reduced even further
